Here are results for 16 compounds from patent US20240279207A1, “SUBSTITUTED ACYL SULFONAMIDES FOR TREATING CANCER” (The Broad Institute, Inc., priority 2020, published 2024).

The subject of one experiment is LCLC97TM1. Kind of experiment: LCLC97TM1 proliferation assay. In kind it is cell-based. Conditions: Homo sapiens, LCLC-97TM1, LCLC97TM1; read-out: LCLC97TM1 proliferation assay; EC50 [M] (arithmetic mean).
Experiment [1] has as its system ESR1 transcription in MVLN cells. In words: MVLN reporter assay: repression of ESR1 transcription (luciferase signal). In kind it is cell-based. Conditions: Homo sapiens, MVLN, 24 h, luciferase signal after 24 h, read-out: MVLN reporter assay, IC50 [M] (arithmetic mean). In short, it runs like this: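 MVLN cells, expressing ER and stably carrying a vitellogenin A2 ERE-luciferase reporter, treated with compound in duplicate; luciferase read after 24 h with Steadylite plus. Cell density checked in parallel by Alamar Blue fluorescence (530/590 nm, 2 h) before the luciferase read.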

Experiment [2] deals with T1, Recombinant human GST-tagged Kat6b protein (431-end) (Homo sapiens, UniProt Q8WYB5).
T1 construct: Kat6b protein (431-end, N-terminal GST-tag); GST (N)
T1 sequence (Q8WYB5 431-2073): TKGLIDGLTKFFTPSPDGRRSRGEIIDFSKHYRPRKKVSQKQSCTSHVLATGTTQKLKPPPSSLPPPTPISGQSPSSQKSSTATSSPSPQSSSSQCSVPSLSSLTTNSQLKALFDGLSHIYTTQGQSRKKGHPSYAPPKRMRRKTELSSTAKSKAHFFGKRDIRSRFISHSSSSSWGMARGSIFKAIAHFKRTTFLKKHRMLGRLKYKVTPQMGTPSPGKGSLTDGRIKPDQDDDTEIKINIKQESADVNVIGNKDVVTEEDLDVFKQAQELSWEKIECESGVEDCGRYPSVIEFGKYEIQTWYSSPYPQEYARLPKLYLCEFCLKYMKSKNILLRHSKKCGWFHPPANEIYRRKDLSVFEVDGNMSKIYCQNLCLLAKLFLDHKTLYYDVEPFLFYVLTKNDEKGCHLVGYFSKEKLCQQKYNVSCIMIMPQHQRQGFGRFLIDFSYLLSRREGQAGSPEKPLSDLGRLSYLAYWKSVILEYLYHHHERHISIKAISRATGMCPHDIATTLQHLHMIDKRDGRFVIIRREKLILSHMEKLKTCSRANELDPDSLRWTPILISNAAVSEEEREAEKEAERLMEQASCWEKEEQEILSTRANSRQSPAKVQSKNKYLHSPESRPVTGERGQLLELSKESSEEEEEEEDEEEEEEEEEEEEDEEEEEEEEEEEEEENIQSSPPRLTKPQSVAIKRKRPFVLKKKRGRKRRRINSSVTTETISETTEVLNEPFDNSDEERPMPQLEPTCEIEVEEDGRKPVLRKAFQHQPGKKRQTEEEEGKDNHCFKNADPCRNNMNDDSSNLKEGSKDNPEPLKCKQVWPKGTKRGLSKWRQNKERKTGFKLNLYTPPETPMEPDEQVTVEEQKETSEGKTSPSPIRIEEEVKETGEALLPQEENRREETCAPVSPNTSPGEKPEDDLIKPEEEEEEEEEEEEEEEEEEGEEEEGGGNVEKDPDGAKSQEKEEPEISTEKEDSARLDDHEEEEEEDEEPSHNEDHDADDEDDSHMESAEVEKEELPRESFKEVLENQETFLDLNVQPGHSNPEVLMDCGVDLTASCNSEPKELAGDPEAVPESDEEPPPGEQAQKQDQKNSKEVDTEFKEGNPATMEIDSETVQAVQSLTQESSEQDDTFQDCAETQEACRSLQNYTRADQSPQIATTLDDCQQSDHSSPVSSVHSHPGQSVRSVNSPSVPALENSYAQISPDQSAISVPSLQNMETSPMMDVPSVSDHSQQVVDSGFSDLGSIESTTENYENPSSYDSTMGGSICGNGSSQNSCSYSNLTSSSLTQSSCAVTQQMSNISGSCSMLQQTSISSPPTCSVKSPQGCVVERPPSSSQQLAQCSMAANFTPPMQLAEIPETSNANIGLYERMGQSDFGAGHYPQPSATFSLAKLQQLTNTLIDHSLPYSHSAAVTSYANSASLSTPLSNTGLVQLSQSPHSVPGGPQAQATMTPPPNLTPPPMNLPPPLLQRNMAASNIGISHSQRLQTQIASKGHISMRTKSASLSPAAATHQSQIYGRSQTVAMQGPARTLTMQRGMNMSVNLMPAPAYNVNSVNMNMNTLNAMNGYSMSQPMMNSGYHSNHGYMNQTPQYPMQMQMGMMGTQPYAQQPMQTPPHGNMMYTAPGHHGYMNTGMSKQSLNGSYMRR
Kind of experiment: Kat6b activity assay (TR-FRET, acetylation of Histone-H4-derived peptide). The experiment is classed as biochemical. Conditions: 30 mins at 22° C., 500 nM H4 peptide, 600 nM Acetyl Coenzyme A, read-out: KAT6B activity assay IC50 [mol/l] (arithmetic mean). How it is done:
Kat6b inhibitory activities of the compounds described in the present invention were quantified using a Fluorescence Resonance Energy Transfer (TR-FRET) assay which measures acetylation of a synthetic, biotinylated Histone-H4-derived peptide by the enzyme.
In this case 50 nl DMSO were used instead of compounds. […] IC50 values were determined by regression analysis based on a 4 parameter equation (minimum, maximum, ICM, Hill; Y=Max+(Min−Max)/(1+(X/ICso) Hill) using the Screener Software (Genedata).
(TR-FRET usually uses a lanthanide donor and a delayed reading to cut background.)

Experiment [3] concerns the target T2, Recombinant human His-tagged Kat6a protein (amino acids 194-810) (Homo sapiens, UniProt Q92794).
T2 construct: Kat6a protein (amino acids 194-810); His
In words: Kat6a activity assay (TR-FRET, acetylation of Histone-H4-derived peptide). In kind it is biochemical. Conditions: 60 mins at 22° C., 220 nM H4 peptide, 600 nM Acetyl Coenzyme A, read-out: KAT6A - DPF/HAT domain IC50 [mol/l] (arithmetic mean).

The test system of a further experiment is ZR-75-1 cells. In words: ZR-75-1 proliferation assay. In kind it is cell-based. Conditions: Homo sapiens, ZR-75-1, 144 h, Alamar Blue, read-out: ZR75-1 proliferation assay, EC50 [M] (arithmetic mean). An excerpt:
For compound characterization cell survival assays were routinely run in two cell lines. ZR-75-1 is a breast carcinoma cell line containing a focal KAT6A amplification and high KAT6A protein expression. Proliferation of this cell line is inhibited upon treatment with KAT6A inhibitors. As a negative control cell line MDA-MB-436 were used. These cells carry a […] deletion of the KAT6A gene, have a low KAT6A protein expression and are not growth inhibited upon treatment with KAT6A inhibitors.
For measurements cell lines were plated at the below indicated concentration per […] in 96-well plates in a humidified incubator at 37° C. and 5% CO2.
ZR-75-1 (ATCC, CRL-1500; breast carcinoma); 3000 cells per well; culture medium: RPMI 1640 (Biochrom #FG 1215) medium containing 2.5% FBS (Biochrom #S0615).
Each sample was prepared as triplicate and rim wells were excluded. Plates were incubated at 37° C. and 5% CO2 for 144 h. Cell viability was measured by adding 10 μL of Alamar Blue Reagent (Invitrogen #DAL 1100) and plates were incubated for 2 h at 37° C. and 5% CO2. Fluorescence was measured at 590 nm wavelength with a Tecan Spark or Victor X3 MTP-Reader (PerkinElmer).
(Resazurin is reduced to fluorescent resorufin, in cell work by metabolically active cells.)

Another experiment relates to MDA-MB-436 cells. In words: MDA-MB-436 proliferation assay (negative control cell line). The experiment is classed as cell-based. Conditions: Homo sapiens, 144 h, Alamar Blue, read-out: MDA-MB-436 proliferation assay, EC50 [M] (arithmetic mean). In short, it runs like this: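 MDA-MB-436 cells (KAT6A deletion, low KAT6A protein) seeded at 3000 cells/well in DMEM/Ham's F12 with 2.5% FBS, treated in triplicate for 144 h at 37° C, 5% CO2. Viability read by Alamar Blue fluorescence at 590 nm after 2 h.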

T2 sequence (Q92794 194-810): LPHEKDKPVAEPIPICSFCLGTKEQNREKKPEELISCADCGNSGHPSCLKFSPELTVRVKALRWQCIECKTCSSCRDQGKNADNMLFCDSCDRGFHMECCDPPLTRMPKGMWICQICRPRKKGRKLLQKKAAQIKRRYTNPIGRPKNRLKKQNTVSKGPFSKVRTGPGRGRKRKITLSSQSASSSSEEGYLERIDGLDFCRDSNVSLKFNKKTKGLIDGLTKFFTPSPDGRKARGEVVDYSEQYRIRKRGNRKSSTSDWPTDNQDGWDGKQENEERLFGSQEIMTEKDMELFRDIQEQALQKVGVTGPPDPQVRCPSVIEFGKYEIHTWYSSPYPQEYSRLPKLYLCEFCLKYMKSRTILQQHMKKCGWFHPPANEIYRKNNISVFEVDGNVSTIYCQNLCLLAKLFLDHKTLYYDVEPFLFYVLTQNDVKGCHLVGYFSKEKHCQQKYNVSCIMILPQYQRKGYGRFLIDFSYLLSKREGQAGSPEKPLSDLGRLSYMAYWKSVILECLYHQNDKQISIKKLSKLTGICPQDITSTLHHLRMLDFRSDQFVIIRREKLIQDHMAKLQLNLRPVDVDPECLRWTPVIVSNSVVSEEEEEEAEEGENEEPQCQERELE

As to `CCOc1ccccc1S(=O)(=O)NC(=O)c1cc2ccc(N3CC(F)C3)cc2o1` [Example 107, N-(2-Ethoxybenzene-1-sulfonyl)-6-(3-fluoroazetidin-1-yl)-1-benzofuran-2-carboxamide], the EC50 in the experiment with LCLC97TM1 turned out to be 9.16e-07 M; with ZR-75-1 cells it was 4.1e-07 M. For the same compound, the values for the IC50 in experiment [1], in experiment [2] and in experiment [3] were 1.33e-07 M, 853 nM and 275 nM, respectively.
As to `CCCOc1ccccc1S(=O)(=O)NC(=O)c1cc2c(F)cc(N3CCC3)cc2o1` [Example 133, 6-(Azetidin-1-yl)-4-fluoro-N-(2-propoxybenzene-1-sulfonyl)-1-benzofuran-2-carboxamide], the EC50 is 6.64e-07 M in the experiment with LCLC97TM1, over 2e-05 M in the experiment on MDA-MB-436 cells and 1.61e-07 M with ZR-75-1 cells. Also, the IC50 in experiment [1] was 6.41e-08 M; in experiment [3], 21.8 nM.
The corresponding values for `Cc1ccc(OC(C)C)c(S(=O)(=O)NC(=O)c2cc3c(F)cc(N4CCC4)cc3o2)c1` [Example 134, 6-(Azetidin-1-yl)-4-fluoro-N-{5-methyl-2-[(propan-2-yl)oxy]benzene-1-sulfonyl}-1-benzofuran-2-carboxamide] are 3.76e-07 M, over 2e-05 M, 8.18e-08 M, 7.44e-08 M and 18.3 nM.
The corresponding values for `CCOc1ccc(CC)cc1S(=O)(=O)NC(=O)c1cc2c(F)cc(N3CC(F)C3)cc2o1` [Example 153, N-(2-ethoxy-5-ethylbenzene-1-sulfonyl)-4-fluoro-6-(3-fluoroazetidin-1-yl)-1-benzofuran-2-carboxamide] are 1.6e-07 M, over 2e-05 M, 4.98e-08 M, 4.69e-08 M and 10.5 nM.
As for `O=C(NS(=O)(=O)c1cccc2ccc(Cl)nc12)c1cc2c(F)cc(N3CC(F)C3)cc2o1` [Example 154, N-(2-Chloroquinoline-8-sulfonyl)-4-fluoro-6-(3-fluoroazetidin-1-yl)-1-benzofuran-2-carboxamide], the EC50 in the experiment with LCLC97TM1 is 2.25e-07 M; with MDA-MB-436 cells, over 2e-05 M; with ZR-75-1 cells, 4.95e-08 M. Besides, the IC50 came to 7.11e-08 M in experiment [1] and 13.4 nM in experiment [3].
The corresponding values for `CC(C)Oc1ccccc1S(=O)(=O)NC(=O)c1cc2c(F)cc(N3CC(F)C3)cc2o1` [Example 155, 4-Fluoro-6-(3-fluoroazetidin-1-yl)-N-{2-[(propan-2-yl)oxy]benzene-1-sulfonyl}-1-benzofuran-2-carboxamide] are 4.28e-07 M, over 2e-05 M, 7.48e-08 M, 7.14e-08 M and 36.7 nM.
The corresponding values for `COc1cc(C)ccc1S(=O)(=O)NC(=O)c1cc2c(F)cc(N3CCC3)cc2o1` [Example 156, 6-(Azetidin-1-yl)-4-fluoro-N-(2-methoxy-4-methylbenzene-1-sulfonyl)-1-benzofuran-2-carboxamide] are 6.6e-07 M, over 2e-05 M, 1.34e-07 M, 7.43e-08 M and 19.9 nM.
The corresponding values for `Cc1ccc(OC(C)C)c(S(=O)(=O)NC(=O)c2cc3c(F)cc(N4CC(F)C4)cc3o2)c1` [Example 157, 4-Fluoro-6-(3-fluoroazetidin-1-yl)-N-{5-methyl-2-[(propan-2-yl)oxy]benzene-1-sulfonyl}-1-benzofuran-2-carboxamide] are 7.07e-07 M, over 2e-05 M, 1.1e-07 M, 7.51e-08 M and 37.3 nM.
With `CCc1ccc2cccc(S(=O)(=O)NC(=O)c3cc4c(F)cc(N5CCC5)cc4o3)c2n1` [Example 171, 6-(Azetidin-1-yl)-N-(2-ethylquinoline-8-sulfonyl)-4-fluoro-1-benzofuran-2-carboxamide], the EC50 with LCLC97TM1 is 4.4e-07 M; with MDA-MB-436 cells it was over 2e-05 M; with ZR-75-1 cells, 3.98e-07 M. In addition, the IC50 in experiment [1] is 6.68e-08 M; in experiment [3] it was 15.7 nM.
Consider `COc1ccc(C2=CCOCC2)cc1S(=O)(=O)NC(=O)c1cc2c(F)cc(N3CCC3)cc2o1` [Example 196, 6-(azetidin-1-yl)-N-[5-(3,6-dihydro-2H-pyran-4-yl)-2-methoxybenzene-1-sulfonyl]-4-fluoro-1-benzofuran-2-carboxamide], for which the figures for the EC50 in the experiment with LCLC97TM1, in the experiment on MDA-MB-436 cells and with ZR-75-1 cells were 8.1e-07 M, over 2e-05 M and 1.44e-07 M, respectively. For the same compound, the results for the IC50 in experiment [1] and in experiment [3] were 4.72e-08 M and 8.25 nM, respectively.
The corresponding values for `Cc1cc2c(c(S(=O)(=O)NC(=O)c3cc4c(F)cc(N5CCC5)cc4o3)c1C)OC(C)(C)C2` [Example 204, 6-(Azetidin-1-yl)-4-fluoro-N-(2,2,5,6-tetramethyl-2,3-dihydro-1-benzofuran-7-sulfonyl)-1-benzofuran-2-carboxamide] are 8.36e-07 M, 1.6e-06 M, 3.4e-07 M, 1.79e-07 M and 7.7 nM.
The corresponding values for `C=C(C)c1ccc(OC)c(S(=O)(=O)NC(=O)c2cc3c(F)cc(N4CCC4)cc3o2)c1` [Example 205, 6-(Azetidin-1-yl)-4-fluoro-N-[2-methoxy-5-(prop-1-en-2-yl)benzene-1-sulfonyl]-1-benzofuran-2-carboxamide] are 9.37e-07 M, over 2e-05 M, 1.73e-07 M, 7.15e-08 M and 7.97 nM.
The corresponding values for `CCOc1ccc(C(F)(F)F)cc1S(=O)(=O)NC(=O)c1cc2c(F)cc(N3CCC3)cc2o1` [Example 209, 6-(azetidin-1-yl)-N-[2-ethoxy-5-(trifluoromethyl)phenyl]sulfonyl-4-fluoro-benzofuran-2-carboxamide] are 6.32e-07 M, over 2e-05 M, 4.59e-08 M, 5.86e-08 M and 26.5 nM.
Turning to `CC(C)c1ccc(OCC(F)(F)F)c(S(=O)(=O)NC(=O)c2cc3c(F)cc(N4CCC4)cc3o2)c1` [Example 215, 6-(azetidin-1-yl)-4-fluoro-N-[5-isopropyl-2-(2,2,2-trifluoroethoxy)phenyl]sulfonyl-benzofuran-2-carboxamide], the results for the EC50 with LCLC97TM1, with MDA-MB-436 cells and in the experiment with ZR-75-1 cells were 2.83e-06 M, over 2e-05 M and 5.82e-07 M, respectively. Besides, the IC50 in experiment [1] is 7.43e-08 M; in experiment [3], 7.18 nM.
The corresponding values for `CC(C)(C)c1ccc(OCC2CC2)c(S(=O)(=O)NC(=O)c2cc3c(F)cc(N4CCC4)cc3o2)c1` [Example 226, 6-(Azetidin-1-yl)-N-[(5-(tert-butyl)-2-(cyclopropylmethoxy)phenyl)sulfonyl]-4-fluorobenzofuran-2-carboxamide] are 4.63e-08 M, over 2e-05 M, 2.78e-08 M, 5.37e-08 M and 1.79 nM.
Turning to `CC(C)(C)c1ccc(OCC(F)(F)F)c(S(=O)(=O)NC(=O)c2cc3c(F)cc(N4CCC4)cc3o2)c1` [Example 227, 6-(Azetidin-1-yl)-N-[(5-(tert-butyl)-2-(2,2,2-trifluoroethoxy)phenyl)sulfonyl]-4-fluorobenzofuran-2-carboxamide], the EC50 in the experiment on LCLC97TM1 was 1.22e-07 M; with MDA-MB-436 cells, over 2e-05 M; in the experiment on ZR-75-1 cells, 7.19e-08 M. The IC50 in experiment [1] came out at 4.82e-08 M; in experiment [3], 5.4 nM.
